Experimental data reported in paper PMC3201904 (Phytochemistry, 2011).

Molecular target: GABA A receptor α1β2γ2S (Rattus norvegicus, UniProt P18508+P62813+P63138)
Test: two-microelectrode voltage clamp, Xenopus oocytes, potentiation of GABA current
Type: cell-based

Chain of GABA A receptor α1β2γ2S (P62813 28-455): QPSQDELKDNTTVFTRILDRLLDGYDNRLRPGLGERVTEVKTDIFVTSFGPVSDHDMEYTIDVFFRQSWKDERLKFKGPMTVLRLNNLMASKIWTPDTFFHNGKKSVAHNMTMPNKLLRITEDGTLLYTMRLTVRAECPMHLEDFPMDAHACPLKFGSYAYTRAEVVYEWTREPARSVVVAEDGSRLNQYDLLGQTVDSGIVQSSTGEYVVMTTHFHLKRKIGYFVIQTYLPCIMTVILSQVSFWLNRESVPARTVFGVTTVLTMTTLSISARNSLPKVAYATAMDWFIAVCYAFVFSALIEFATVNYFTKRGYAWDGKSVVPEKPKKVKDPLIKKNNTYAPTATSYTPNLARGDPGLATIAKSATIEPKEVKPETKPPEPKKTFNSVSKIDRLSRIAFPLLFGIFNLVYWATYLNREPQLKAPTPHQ
Chain of GABA A receptor α1β2γ2S (P63138 26-474): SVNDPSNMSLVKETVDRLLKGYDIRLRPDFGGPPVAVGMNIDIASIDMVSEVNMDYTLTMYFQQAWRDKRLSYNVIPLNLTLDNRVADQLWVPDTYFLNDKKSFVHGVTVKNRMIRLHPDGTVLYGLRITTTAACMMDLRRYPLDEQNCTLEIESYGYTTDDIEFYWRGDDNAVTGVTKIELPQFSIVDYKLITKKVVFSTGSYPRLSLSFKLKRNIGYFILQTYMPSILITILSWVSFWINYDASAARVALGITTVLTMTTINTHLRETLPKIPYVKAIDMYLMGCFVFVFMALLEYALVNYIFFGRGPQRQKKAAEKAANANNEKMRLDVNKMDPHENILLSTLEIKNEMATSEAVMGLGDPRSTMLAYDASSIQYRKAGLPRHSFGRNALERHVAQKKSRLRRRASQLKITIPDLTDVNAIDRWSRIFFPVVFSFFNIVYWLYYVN
Chain of GABA A receptor α1β2γ2S (P18508 39-466): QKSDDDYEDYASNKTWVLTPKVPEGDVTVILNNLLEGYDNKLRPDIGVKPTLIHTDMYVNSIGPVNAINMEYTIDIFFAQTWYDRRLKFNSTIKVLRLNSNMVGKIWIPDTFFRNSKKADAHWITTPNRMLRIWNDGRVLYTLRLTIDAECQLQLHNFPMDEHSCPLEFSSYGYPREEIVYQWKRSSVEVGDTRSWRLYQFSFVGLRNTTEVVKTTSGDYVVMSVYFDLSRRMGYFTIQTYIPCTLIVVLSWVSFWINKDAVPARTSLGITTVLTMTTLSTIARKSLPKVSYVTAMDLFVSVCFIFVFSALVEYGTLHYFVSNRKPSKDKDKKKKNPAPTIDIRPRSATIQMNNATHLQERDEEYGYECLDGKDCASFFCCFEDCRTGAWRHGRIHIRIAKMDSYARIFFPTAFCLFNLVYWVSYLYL

| Compound | EC50 [µM] |
| --- | --- |
| COc1cc(C[C@@H](C)[C@@H](C)Cc2ccc(O)c(OC)c2)ccc1O [compound 5, dihydroguaiaretic acid] | 79.2 ± 19.4 |
| C=CC(=C)CC[C@@H](OC(=O)/C=C/c1ccccc1)C(C)(C)O [compound 7, (+)-6-cinnamoyl-6,7-dihydro-7-myrceneol] | 70.6 ± 12.2 |
| COc1cc(C[C@H](C)[C@H](C)Cc2ccc(OC)c(OC)c2)ccc1O [compound 8, mono-methyl dihydroguaiaretic acid] | 54.6 ± 28.8 |
| COc1cc(C[C@H](C)[C@H](C)Cc2ccc3c(c2)OCO3)ccc1O [compound 11, anwulignan] | 31.5 ± 7.1 |
| CC1(C)CCC[C@]1(C)C1=CC=C(C(=O)O)CC1 [compound 12, (−)-5,6-dihydrocuparenic acid] | 118 ± 29.9 |
